Measurements published in patent US9215868B2, “Low-foam preparations for crop protection” (Bayer Intellectual Property GmbH, priority 2006, dated 2015).

Tested on: leaves of monocotyledonous crop plants such as corn and dicotyledonous crop plants such as apples
Assay: Leaf penetration of water-soluble leaf fertilisers such as urea
Type: in vivo
Conditions: urea 0.1 to 2% in spray liquor, in presence of 0.05 to 1% of one of the alkyl ether sulfates according to the invention; within a number of days
Text: In the case of foliar application of urea (0.1 to 2% in the spray liqour) to leaves of monocotyledonous crop plants such as corn and also to dicotyledonous crop plants such as apples, the rate of foliar uptake was increased within a number of days by a factor of at least two in the presence of 0.05 to 1% of one of the alkyl ether sulfates according to the invention.

`NC(N)=O` [urea] was tested, and the “factor of increase of rate of foliar uptake” value was “at least two”.
